Measured values taken from patent US10836770B2, “Imidazopyridazine compounds useful as modulators of IL-12, IL-23 and/or INF alpha responses” (priority 2016, dated 2020).

Tests used:
[1] = tested on: IL-23-stimulated Kit225 T cells with STAT-dependent luciferase reporter; experiment: Kit225 T cell assay, IL-23 stimulated STAT-dependent luciferase reporter; type: cell-based, human; conditions: Homo sapiens, KIT225, read-out: IL-23 Kit225 Reporter, LE (IC50, uM)
Experimental: (§1) Kit225 T cells with a stably-integrated STAT-dependent luciferase reporter were plated in RPMI (GIBCO) containing 10% heat-inactivated FBS (GIBCO) and 100 U/mL PenStrep (GIBCO). The cells were then stimulated with either 20 ng/mL human recombinant IL-23 or 200 U/mL human recombinant IFNα (PBL InterferonSource) for 5-6 hours. Luciferase expression was measured using the STEADY-GLO® Luciferase Assay System (PROMEGA®) according to the manufacturer's instructions.

[2] = tested on: IFNα-stimulated Kit225 T cells with STAT-dependent luciferase reporter; experiment: Kit225 T cell assay, IFNα stimulated STAT-dependent luciferase reporter; type: cell-based, human; conditions: Homo sapiens, KIT225, read-out: IFNa Kit225 Reporter, LE (IC50, uM)
Experimental: as §1

[3] = molecular target: T1, recombinantly expressed His-tagged protein corresponding to amino acids 575-869 of human Tyk2 (Homo sapiens, UniProt P29597); experiment: Probe displacement assay (scintillation proximity, radiolabeled probe); type: binding
T1 construct: made in house
T1 sequence (P29597 with tags, fused parts or gaps): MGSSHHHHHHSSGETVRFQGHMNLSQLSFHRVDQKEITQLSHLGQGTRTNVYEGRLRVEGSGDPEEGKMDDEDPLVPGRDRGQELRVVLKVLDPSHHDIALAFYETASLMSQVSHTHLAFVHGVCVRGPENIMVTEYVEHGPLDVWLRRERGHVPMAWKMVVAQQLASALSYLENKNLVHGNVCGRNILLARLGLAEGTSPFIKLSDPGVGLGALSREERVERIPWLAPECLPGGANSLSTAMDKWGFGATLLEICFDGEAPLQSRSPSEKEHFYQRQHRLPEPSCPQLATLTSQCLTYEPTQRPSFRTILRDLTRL
Experimental: The probe displacement assay is conducted as follows: In a […], test compounds along with recombinantly expressed His-tagged protein corresponding to amino acids 575-869 of human Tyk2 (sequence shown below) at 2.5 nM, 40 nM ((R)—N-(1-(3-(8-methyl-5-(methylamino)-8H-imidazo[4,5-d]thiazolo[5,4-b]pyridin-2-yl)phenyl)ethyl)-2-([^3H]methylsulfonyl)benzamide) (preparation described below) and 80 μg/mL Copper His-Tag scintillation proximity assay beads (Perkin Elmer, Catalog #RPNQ0095) in 50 mM HEPES, pH 7.5, containing 100 μg/mL bovine serum albumin and 5% DMSO were incubated for 30 minutes at room temperature. […] The IC50 value is defined as the concentration of test compound required to inhibit radiolabeled probe binding by 50%.
Protein Sequence of recombinant Hig-tagged Tyk2 (575-869):
The preparation of radiolabeled probe, (R)—N-(1-(3-(8-methyl-5-(methylamino)-8H-imidazo[4,5-d]thiazolo[5,4-b]pyridin-2-yl)phenyl)ethyl)-2-([^3H]methylsulfonyl)benzamide, was performed as described below: […]

SMILES	IC50 [1]	IC50 [2]	EC50 [3]
CNC(=O)c1nn(C)cc1Nc1cc(NC)c2ncc(C(=O)NC3CC3)n2n1 [Example 1, N-cyclopropyl-6-((1-methyl-3-(methylcarbamoyl)-1H-pyrazol-4-yl)amino)-8-(methylamino)imidazo[1,2-b]pyridazine-3-carboxamide]	1.32 µM	0.37 µM	20 nM
CNc1cc(Nc2cn(C)nc2C(=O)Nc2ccccc2)nn2c(C(=O)NC3CC3)cnc12 [Example 2]	0.94 µM	0.68 µM	3 nM
CNc1cc(Nc2cn(C)nc2C(=O)Nc2ccccn2)nn2c(C(=O)NC3CC3)cnc12 [Example 4]	0.35 µM	0.24 µM	7.6 nM
CNc1cc(Nc2cn(C)nc2C(=O)Nc2cccnc2)nn2c(C(=O)NC3CC3)cnc12 [Example 5]	0.34 µM	0.07 µM	10 nM
CNc1cc(Nc2cn(C)nc2C(=O)Nc2ccncc2)nn2c(C(=O)NC3CC3)cnc12 [Example 6]	0.07 µM	0.19 µM	3.84 nM
CNc1cc(Nc2cn(C)nc2C(=O)Nc2cc(C)c(C)nn2)nn2c(C(=O)NC3CC3)cnc12 [Example 7]	0.32 µM	0.19 µM	20 nM
CNc1cc(Nc2cn(C)nc2C(=O)Nc2cncnc2)nn2c(C(=O)NC3CC3)cnc12 [Example 8]	0.26 µM	0.22 µM	7.67 nM
CNc1cc(Nc2cn(C)nc2C(=O)NC(C)C)nn2c(C(=O)NC3CC3)cnc12 [Example 9]	0.65 µM	0.48 µM	30 nM
[2H]C([2H])([2H])NC(=O)c1nn(C)cc1Nc1cc(NC)c2ncc(C(=O)NC3CC3)n2n1 [Example 10]	0.96 µM	0.4 µM	30 nM
CNc1cc(Nc2cn(C)nc2C(=O)Nc2ccc(OC)nc2)nn2c(C(=O)NC3CC3)cnc12 [Example 11]	0.52 µM	0.48 µM	20 nM
CNc1cc(Nc2cn(C)nc2C(=O)Nc2ccc(OC)cc2)nn2c(C(=O)NC3CC3)cnc12 [Example 12]	0.12 µM	0.11 µM	7.59 nM
CNc1cc(Nc2cn(C)nc2C(=O)Nc2ccc3c(c2)OCO3)nn2c(C(=O)NC3CC3)cnc12 [Example 13]	0.33 µM	0.21 µM	7.77 nM
CNC(=O)c1nn(C)cc1Nc1cc(NC)c2ncc(C(=O)N[C@@H]3C[C@@H]3F)n2n1 [Example 14]	0.28 µM	0.25 µM	10 nM
CNc1cc(Nc2cn(C)nc2C(=O)Nc2ccccc2)nn2c(C(=O)N[C@@H]3C[C@@H]3F)cnc12 [Example 15]	0.2 µM	0.11 µM	9.37 nM
CNc1cc(Nc2cn(C)nc2C(=O)NC2CC2)nn2c(C(=O)NC3CC3)cnc12 [Example 16]	0.25 µM	0.14 µM	4.49 nM
CNc1cc(Nc2cn(C)nc2C(=O)NCC(C)C)nn2c(C(=O)NC3CC3)cnc12 [Example 17]	0.16 µM	0.49 µM	40 nM
CNc1cc(Nc2cn(C)nc2C(=O)NCCCN(C)C)nn2c(C(=O)NC3CC3)cnc12 [Example 18]	0.47 µM	0.77 µM	50 nM
CNc1cc(Nc2cn(C)nc2C(=O)NC2CCC2)nn2c(C(=O)NC3CC3)cnc12 [Example 19]	0.59 µM	12.5 µM	100 nM

SMILES	IC50 [1]	IC50 [2]	EC50 [3]
CCNC(=O)c1nn(C)cc1Nc1cc(NC)c2ncc(C(=O)NC3CC3)n2n1 [Example 20]	1.12 µM	0.81 µM	30 nM
CNc1cc(Nc2cn(C)nc2C(=O)Nc2cccc(F)c2)nn2c(C(=O)NC3CC3)cnc12 [Example 21]	0.24 µM	0.5 µM	50 nM
CNc1cc(Nc2cn(C)nc2C(=O)Nc2cccc(C)c2)nn2c(C(=O)NC3CC3)cnc12 [Example 22]	0.27 µM	0.35 µM	20 nM
CNc1cc(Nc2cn(C)nc2C(=O)Nc2ccc(F)cc2)nn2c(C(=O)NC3CC3)cnc12 [Example 23]	0.43 µM	0.81 µM	20 nM
CNc1cc(Nc2cn(C)nc2C(=O)Nc2ccc3ncsc3c2)nn2c(C(=O)NC3CC3)cnc12 [Example 24]	0.28 µM	0.34 µM	8.4 nM
CNc1cc(Nc2cn(C)nc2C(=O)Nc2ccccc2F)nn2c(C(=O)NC3CC3)cnc12 [Example 25]	0.13 µM	0.19 µM	8.89 nM
CNc1cc(Nc2cn(C)nc2C(=O)Nc2ccc(N(C)C)cc2)nn2c(C(=O)NC3CC3)cnc12 [Example 27]	0.02 µM	0.16 µM	6.8 nM
CCn1cc(Nc2cc(NC)c3ncc(C(=O)NC4CC4)n3n2)c(C(=O)NC)n1 [Example 28, N-cyclopropyl-6-((1-ethyl-3-(methylcarbamoyl)-1H-pyrazol-4-yl)amino)-8-(methylamino)imidazo[1,2-b]pyridazine-3-carboxamide]	0.21 µM	0.4 µM	20 nM
CCn1cc(Nc2cc(NC)c3ncc(C(=O)NC4CC4)n3n2)c(C(=O)Nc2cncnc2)n1 [Example 29]	0.24 µM	1.04 µM	100 nM
CCn1cc(Nc2cc(NC)c3ncc(C(=O)NC4CC4)n3n2)c(C(=O)Nc2ccccc2)n1 [Example 31]	0.72 µM	0.3 µM	9.39 nM
CNC(=O)c1n[nH]cc1Nc1cc(NC)c2ncc(C(=O)NC3CC3)n2n1 [Example 32, N-cyclopropyl-6-((3-(methylcarbamoyl)-1H-pyrazol-4-yl)amino)-8-(methylamino)imidazo[1,2-b]pyridazine-3-carboxamide]	0.83 µM	1.65 µM	30 nM
CNc1cc(Nc2c[nH]nc2C(=O)Nc2cccnc2)nn2c(C(=O)NC3CC3)cnc12 [Example 33]	1 µM	5.82 µM	30 nM
CNc1cc(Nc2c[nH]nc2C(=O)Nc2ccc(OC)nc2)nn2c(C(=O)NC3CC3)cnc12 [Example 34]	0.58 µM	0.81 µM	2.47 nM
CNC(=O)c1cn(C)nc1Nc1cc(NC)c2ncc(C(=O)NC3CC3)n2n1 [Example 35, N-cyclopropyl-6-((1-methyl-4-(methylcarbamoyl)-1H-pyrazol-3-yl)amino)-8-(methylamino)imidazo[1,2-b]pyridazine-3-carboxamide]	1.09 µM	0.47 µM	4.83 nM
CNc1cc(Nc2nn(C)cc2C(=O)Nc2ccccc2)nn2c(C(=O)NC3CC3)cnc12 [Example 36]	3.33 µM	11.9 µM	130 nM
CNc1cc(Nc2cnn(C)c2C(=O)O)nn2c(C(=O)NC3CC3)cnc12 [Example 37, 4-((3-(cyclopropylcarbamoyl)-8-(methylamino)imidazo[1,2-b]pyridazin-6-yl)amino)-1-methyl-1H-pyrazole-5-carboxylic acid]	2.34 µM	1.39 µM	50 nM
CNc1cc(Nc2cnn(C)c2C(=O)Nc2ccccc2)nn2c(C(=O)NC3CC3)cnc12 [Example 38]	4.46 µM	12.5 µM	50 nM
CNc1cc(Nc2csnc2C(=O)Nc2ccc(OC)cc2)nn2c(C(=O)NC3CC3)cnc12 [Example 63]		0.29 µM	6.04 nM
